# Where a name gives a salt, the structure may show the parent alone.
# Assays:
# Type in all cases: in vivo
# [1] = test system: eggs with diapaused embryos of Bombyx mori; test: Termination of embryonic diapause in eggs dipped in NO donor or HCl; settings: SpermineNONOate 1 mM 30 min dip; 20% HCl 5 min 48° C.
# Description: All experiments were carried out on silkmoth strain Bombyx mori J106 (Lepidoptera: Bombycidae). Larvae were maintained on an artificial diet (Yakuruto Co.) under standard conditions of 25° C., 65% relevant humidity and 16 h light ([…] et al., 2003). Egg batches were collected from a continuous insect colony and used for the experiments. […] The latter treatment is the normally used procedure to break diapause in eggs with diapaused embryos for maintenance of the insect colony of B. mori ([…] et al., 2003). In a water-control, eggs with diapaused embryos were dipped in distilled water only, and in a blank-control, eggs with diapaused were not treated. […] The numbers of eggs with diapaused embryos per treatment (n) are given with the results.
# [2] = test system: Bolshoye Yarovoye Artemia cysts (ARC BY 1706); test: Post-diapause development of Bolshoye Yarovoye strain encysted Artemia embryos with NO donors
# Description: Encysted embryos (cysts) from a parthenogenetic strain of Artemia obtained in winter 2005-2006 in Bolshoye Yarovoye (Altay Region: 52° 51′64″ N-78° 37′32″ E), Russia (Artemia Reference Center (ARC) code number BY 1706), were stored in the dark at 4° C. in dry sealed bags. For the experiment, the cysts were grown at 26-28° C. with constant illumination in 25 ml of sea water under varying experimental conditions as detailed below.
# To quantify larval (nauplii) emergence and hatching (FIG. 1) which served as measures of cyst development, 6 samples of 250 μl from each 50 ml tube were mixed individually with 250 μl of sea water and 2 drops of Lugol's solution (Van Stappen, G, 1996) prior to counting nauplii (N) and umbrella (U) with the aid of a dissecting microscope. […] The extent of development was determined as the percent of developed cysts which was calculated as either the number of hatched larvae, or the number of hatched and emerged larvae, obtained from 100 cysts, the latter represented by the sum of hatched nauplii (larvae), emerged larvae and undeveloped cysts containing embryos.
# The hatching percentage (H %) was calculated according to: […]
# The hatching percentage plus (H^+%) was calculated according to: […]
# The percent of developed cysts was calculated as described above.
# [3] = test system: resting eggs of Brachionus; test: Brachionus resting egg hatching
# Description: Resting eggs of Brachionus were suspended in 20 ml seawater (25 g/l), supplemented with different concentrations of Sin-1 Chloride (1-60 μM) and put in a falcon tube. These tubes were put on a rotor at 28° C. under constant illumination. The effect on the hatching rate was measured after 48 hr and 72 hr of incubation, by counting emerged rotifers in function of the amount of NO donor added.
smiles,measurement,setting,value
Cl [20% HCl],Number of developed neonates at day 6,[1],10
same,Number of developed neonates at day 7,[1],36
same,Number of developed neonates at day 8,[1],12
same,Number of developed neonates at day 14,[1],0
same,Number of undeveloped eggs at day 14,[1],14
same,eggs developed into neonate larvae at 6-8 days after treatment (total),[1],81%
same,percentage of developed neonates at day 14,[1],(0%)
"CC1(C)N([O])C(c2ccccc2)=[N+]([O-])C1(C)C [PTIO, 2-phenyl-4,4,5,5,-tetramethylimidazoline-1-oxyl 3-oxide]",effect of NO scavenger on cyst development promoted by NO donors,"[2]; 300 μM PTIO with 0.5 μM Papa NONOate, 6.0 μM Spermine NONOate or 6.0 μM Sin-1 chloride, 48 hr",inhibited cyst development
"[NH-]c1c[n+](N2CCOCC2)no1 [Sin-1 Chloride, 3-morpholine syndnonimine]",Percentage hatching of resting eggs,"[3]; 1 μM, 48 hrs",12.34% (3.62)
same,Percentage hatching of resting eggs,"[3]; 1 μM, 72 hrs",33.11% (2.66)
same,Percentage hatching of resting eggs,"[3]; 6 μM, 48 hrs",18.93% (1.25)
same,Percentage hatching of resting eggs,"[3]; 6 μM, 72 hrs",33.71% (0.66)
same,Percentage hatching of resting eggs,"[3]; 10 μM, 72 hrs",37.17% (2.88)
same,Percentage hatching of resting eggs,"[3]; 20 μM, 48 hrs",17.99% (3.18)
same,Percentage hatching of resting eggs,"[3]; 20 μM, 72 hrs",32.38% (2.63)
same,Percentage hatching of resting eggs,"[3]; 60 μM, 48 hrs",14.98% (3.52)
same,Percentage hatching of resting eggs,"[3]; 60 μM, 72 hrs",27.57% (1.00)
same,hatching after 24 hours,"[2]; 40 and 60 μM, 24 hours, overcome by 48 hr","less dramatic, but obvious"
same,concentration at which NO donor was most effective on cyst development,"[2]; Bolshoye Yarovoye cysts, FIG. 2A-F",4.0 µM
